Measured values as given in article PMC9237094, “Efficient transdermal delivery of functional protein cargoes by a hydrophobic peptide MTD 1067” (Scientific Reports, 2022).
Where a SMILES comes first, the peptide text is derived from it. [ ]: non-standard residue; d: D form.

Key:
[1] = test system: artificial skin (EpiDermFT); assay: Skin penetration in artificial skin model, confocal fluorescence intensity; assay type: in vitro ADME, human; details: FITC-labeled (GHRP-6, des(1-3)IGF-I forms) or rhodamine-labeled (PDGF-BB forms), 0.2 mg/mL, 40 μL, 24 h, 32 °C, 5% CO2, at least three images
Protocol: To evaluate skin permeability using confocal microscopy, des(1-3)IGF-I and MTD-des(1-3)IGF-I were labeled with fluorescein isothiocyanate (FITC), and PDGF-BB and MTD-PDGF-BB were labeled with rhodamine. The labeling reaction was carried out with the molar ratio of protein: FITC (or rhodamine) as 1:10 at 4 °C for 2 h. Excess FITC and rhodamine were removed using a PD-10 desalting column (GE Healthcare, USA). After adjusting the concentrations of FITC-labeled GHRP-6, MTD-GHRP-6, des(1-3)IGF-I, MTD-des(1-3)IGF-I, PDGF-BB, and MTD-PDGF-BB to 0.2 mg/mL, respectively, each labeled solution was applied to the artificial skin (EpiDermFT™, MatTek, USA). […] The fluorescence intensity per equivalent area of the dermal layer was calculated for each confocal image. Quantification analysis using fluorescence intensity was calculated based on the fluorescence intensity of confocal microscopy images. Three confocal microscopy images were obtained per each artificial skin, and the fluorescence intensity values were extracted from five areas of the same size per dermis layer in the microscopy images. The relative intensity was calculated by comparing the signals between the samples with and without MTD conjugation.

[2] = test system: fibroblast cell line NIH 3T3; assay: Cell proliferation activity, NIH 3T3 cells (MTT); assay type: cell-based, mouse; details: 48 h, absorbance 570 nm, triplicates of at least two independent experiments
Protocol: The cell proliferation activity of PDGF-BB and MTD-PDGF-BB was measured using NIH 3T3 cells, which were cultured in DMEM medium supplemented with 10% Bovine Calf Serum (BCS; Hyclone, USA) in a 96-well plate at 5 × 10^3 cells/well for 24 h. 100 μL of the protein sample, serially diluted with serum-free DMEM medium, was added to each well and cultured at 37 °C for 48 h. After removing the cell culture medium, 100 μL of a mixed solution of 5 mg/mL MTT and serum-free DMEM at a ratio of 1:10 was added to each well. After 4 h of incubation in a CO2 incubator for 4 h, the reaction solution was removed, and 100 μL of DMSO was added to each well. Formazans were sufficiently dissolved in DMSO using a plate shaker to develop a purple color, which was measured at 570 nm using a microplate reader (Spectra Max, Molecular Devices, USA).

Compound | Fluorescence intensity in the dermal layer (permeability) relative to the original cargo [1] | ED50, cell proliferation [2]
CSCC[C@H](NC(=O)[C@H](CCCNC(=N)N)NC(=O)[C@H](C)NC(=O)[C@H](C)NC(=O)[C@H](C)NC(=O)[C@@H]1CCCN1C(=O)[C@H](C)NC(=O)[C@@H](NC(=O)[C@H](C)NC(=O)[C@H](C)NC(=O)CNC(=O)CNC(=O)[C@H](CCCCN)NC(=O)[C@@H](Cc1ccccc1)NC(=O)[C@H](Cc1c[nH]c2ccccc12)NC(=O)[C@H](C)NC(=O)[C@@H](Cc1c[nH]c2ccccc12)NC(=O)[C@@H](N)Cc1c[nH]cn1)C(C)C)C(=O)O [MTD-GHRP-6] (H-H[dW]AW[dF]KGGAAVAPAAARM-OH) | approximately five | 
PDGF-BB: recombinant human platelet-derived growth factor BB, dimeric protein |  | 0.042 µg/mL
